# Columns and labels:
# [1] = system: TNF-α in Oral Keratinocytes; experiment: TNF-α ELISA in oral keratinocytes; format: cell-based, human; conditions: for amount of secreted TNF-α by ELISA: LPS (10 μg/ml), FA (10 μg/ml), 24 hours, p<0.05
# Description: (§1) Cell Culture. Normal human oral keratinocytes (NOKSI) and fibroblast (HOF) cells were maintained in Dulbecco […] Eagle's medium (Sigma-Aldrich, St. Louis, MO, USA) supplemented with 10% fetal bovine serum (Atlas Bio-logicals, Fort Collins, CO, USA) and 100 units/mL penicillin and 100 μg/mL streptomycin (LifeTechnologies, Carlsbad, CA, USA). Cells were grown in incubator at 37° C. in a humidified chamber with 5% CO2.
# (§2) Drugs treatment in cell culture. The cells were treated alone or with different combination of lipopolysaccharide, cyclosporine, phenytoin, and folic acid. All of them were purchased from Sigma-Aldrich (St. Louis, MO, USA). Each of them were used from 0 μg/ml to 40 μg/ml and the optimum concentration were found 10 μg/ml.
# Enzyme linked immunosorbent assay (ELISA). ELISA was conducted with a mouse TNF-α ELISA Kit (PeproTech, USA) and TGF-β Emax ImmunoAssay System (Promega USA) to detect the TNF-α and TGF-β respectively. After normalization of the total cells or tissue protein lysates, 20 μg protein of each sample was used for the detection of TNF-α or TGF-β. ELISA was performed according to the manufacturers' instructions. For TNF-α, 100 ng/100 μl of capture antibody was added to each well of 96 well assay plate and incubated for overnight at room temperature. […] Optical absorbing values were read at 405 and 450 nm and corrected by 650 nm. […] TMB One Solution was added for 15 minutes and the reaction were stopped using 100 μl of 1N hydrochloric acid and the absorbance at 450 nm were recorded on a plate reader. Data were analyzed using excel software. […]
# Folic acid reduces TNF-α oral keratinocytes. […] After adhesion, the cells were treated with different concentration of folic acid (2.5 μg/ml-40 μg/ml) and amount of TNF-α was measured by ELISA (p<0.05).
# Folic acid reduces TNF-α in Oral Keratinocytes on LPS stimulation. […] The amount of secreted TNF-α was determined by ELISA (p<0.05).
# Oral Keratinocytes were seeded and treated with LPS (10 μg/ml), Phe (10 μg/ml), and FA (10 μg/ml) for 24 hours. The amount of secreted TNF-α was determined by ELISA. […]
# MyD88 = experiment: Western blot of MyD88 in oral keratinocytes; format: cell-based, human
# Description: as §1, §2
# Western blot analysis. Cells were seeded in 60 mm plates with a density of 5×10^5 cells per plate and washed briefly with Dulbecco's phosphate-buffered saline (Gibco, Waltham, MA, USA). Whole cell lysates were prepared using RIPA lysis buffer containing protease inhibitor cocktail (Sigma-Aldrich). Total protein concentration was determined using the BCA reagent (Pierce, Waltham, MA, USA). 20 μg of total protein were resolved on sodium dodecyl sulfate-polyacrylamide gel electrophoresis and transferred to polyvinylidenedifluoride membrane and immunoblotted. The blots were incubated for 1 h in 1% bovine serum albumin (BSA) (Sigma-Aldrich) to block the non-specific bindings followed by over-night incubation in primary antibodies (MyD88 and pP65 from Cell Signaling Technology, and human LITAF ThermoFisher Sigma) at 4° C. on shaker. Next day, blots were washed for three times (10 min each) in Tris-buffered saline containing 1% Tween20 (TBST) followed by incubation with secondary antibody (Goat anti-rabbit IgG HRP) with 1:10,000 dilution for 1 h. Following washes, bands were visualized using gel documentation Imaging Systems (BioRad). The band intensities were quantified using software ImageJ (NIH, USA) and relative protein levels were normalized by β-actin (Cell Signaling). To perform the western blot of animal tissue samples, the gingival tissues were collected from both BABLB/c and C57BL/6 mice studies. The soft tissues were separated from the mandibular bone and then crunched. The Bradford assay was performed to measure the protein concentration of each sample. After normalization, 20 μg of whole tissue protein lysate were proceeded for western blot analysis.
smiles,measurement,setting,value
Nc1nc2ncc(CNc3ccc(C(=O)N[C@@H](CCC(=O)O)C(=O)O)cc3)nc2c(=O)[nH]1 [folic acid],amount of secreted TNF-α by ELISA,[1]; CSA (10 μg/ml),reduces TNF-α
same,amount of secreted TNF-α by ELISA,[1]; Phe (10 μg/ml),inhibits Phenytoin-induced TNF-α
same,amount of TNF-α by ELISA,"[1]; folic acid […]-40 μg/ml alone, p<0.05 vs non-treated",reduces TNF-α
same,MyD88 protein level,"MyD88; LPS, CSA, FA each 10 μg/ml, 24 hours",inhibits CSA-induced expression
same,amount of MYD88 protein,"MyD88; LPS, Phe, FA each 10 μg/ml, 24 hours",MyD88 expression is reduced
same,"MyD88 by western blot, dose-dependent effects of FA","MyD88; different concentration of folic acid, 24 hrs",inhibition of MyD88
same,"MyD88 by western blot, kinetics of downregulation","MyD88; different time points, FA 10 μg/ml",inhibition of MyD88
same,MyD88 by western blot,"MyD88; normal oral keratinocyte cells, FIG. 35",downregulation

# Reference: US20260000496A1, “MATERIALS AND METHODS FOR DRUG-INDUCED GINGIVAL OVERGROWTH” (Optimed Technology, Inc., priority 2019, published 2026)
